pKi: −log10 of the molar value.
What was measured:
Cytochrome P450 2C9 = Cytochrome P450 2C9 (Homo sapiens, UniProt P11712); assay: Inhibition of human CYP2C9
CYP2A6 over CYP2C9 = assay: Selectivity for CYP2A6 over CYP2C9; conditions: human
CYP2A6 over CYP2B6 = assay: Selectivity for CYP2A6 over CYP2B6
CYP2A6 over CYP2D6 = assay: Selectivity for CYP2A6 over CYP2D6; conditions: human
CYP2A6 over CYP2C19 = assay: Selectivity for CYP2A6 over CYP2C19; conditions: human
CYP2A6 over CYP2E1 = assay: Selectivity for CYP2A6 over CYP2E1; conditions: human
Cytochrome P450 2D6 = Cytochrome P450 2D6 (Homo sapiens, UniProt P10635); assay: Inhibition of human CYP2D6
Cytochrome P450 2E1 = Cytochrome P450 2E1 (Homo sapiens, UniProt P05181); assay: Inhibition of human CYP2E1
Cytochrome P450 2B6 = molecular target: T1, Cytochrome P450 2B6 (Homo sapiens, UniProt P20813); assay: Inhibition of human CYP2B6
T1 sequence (P20813 whole entry): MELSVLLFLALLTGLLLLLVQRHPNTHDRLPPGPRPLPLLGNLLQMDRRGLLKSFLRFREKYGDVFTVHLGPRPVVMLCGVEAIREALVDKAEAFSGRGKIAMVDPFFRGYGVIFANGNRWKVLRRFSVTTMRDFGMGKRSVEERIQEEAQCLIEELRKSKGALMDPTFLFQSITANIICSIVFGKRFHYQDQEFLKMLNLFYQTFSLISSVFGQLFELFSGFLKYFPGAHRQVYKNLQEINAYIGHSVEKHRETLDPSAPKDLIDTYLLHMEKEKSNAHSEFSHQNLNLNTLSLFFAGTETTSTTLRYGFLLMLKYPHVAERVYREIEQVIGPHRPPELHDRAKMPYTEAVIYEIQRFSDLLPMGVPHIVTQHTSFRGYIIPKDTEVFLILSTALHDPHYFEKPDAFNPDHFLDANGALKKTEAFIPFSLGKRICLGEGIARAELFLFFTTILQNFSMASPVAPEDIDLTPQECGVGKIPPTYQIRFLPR

Cytochrome P450 2A6 [1] = molecular target: T2, Cytochrome P450 2A6 (Homo sapiens, UniProt P11509); assay: Inhibition of human CYP2A6
T2 sequence (P11509 whole entry): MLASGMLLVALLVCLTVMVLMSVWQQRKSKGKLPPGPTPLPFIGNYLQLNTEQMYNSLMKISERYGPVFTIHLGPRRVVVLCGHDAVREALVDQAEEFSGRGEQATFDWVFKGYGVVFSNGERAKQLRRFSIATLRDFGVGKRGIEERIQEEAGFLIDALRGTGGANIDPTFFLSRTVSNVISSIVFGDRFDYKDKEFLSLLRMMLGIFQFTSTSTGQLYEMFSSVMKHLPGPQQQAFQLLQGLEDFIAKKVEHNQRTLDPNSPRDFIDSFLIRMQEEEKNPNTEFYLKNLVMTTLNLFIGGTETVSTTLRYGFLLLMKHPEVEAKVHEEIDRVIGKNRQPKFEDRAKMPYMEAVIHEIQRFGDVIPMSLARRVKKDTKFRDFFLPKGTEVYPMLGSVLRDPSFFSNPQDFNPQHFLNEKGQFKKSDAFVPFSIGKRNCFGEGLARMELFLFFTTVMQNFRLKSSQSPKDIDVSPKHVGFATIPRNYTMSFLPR

Liver microsomes = assay: (§1) Stability in human liver microsome; conditions: microsomes
Cytochrome P450 2C19 = Cytochrome P450 2C19 (Homo sapiens, UniProt P33261); assay: Inhibition of human CYP2C19
CYP2A6 over CYP3A4 = assay: Selectivity for CYP2A6 over CYP3A4; conditions: human
Cytochrome P450 3A4 = Cytochrome P450 3A4 (Homo sapiens, UniProt P08684); assay: Inhibition of human CYP3A4
Mus musculus = species on record: Mus musculus; assay: (§2) Stability in mouse liver microsome; conditions: microsomes
[2] = as §1
Cytochrome P450 2A6 [3] = molecular target: T2, Cytochrome P450 2A6; assay: Displacement of coumarin from CYP2A6 at 100 uM; type: ADME
[4] = as §2

Chain of Cytochrome P450 2C9 (P11712 whole entry): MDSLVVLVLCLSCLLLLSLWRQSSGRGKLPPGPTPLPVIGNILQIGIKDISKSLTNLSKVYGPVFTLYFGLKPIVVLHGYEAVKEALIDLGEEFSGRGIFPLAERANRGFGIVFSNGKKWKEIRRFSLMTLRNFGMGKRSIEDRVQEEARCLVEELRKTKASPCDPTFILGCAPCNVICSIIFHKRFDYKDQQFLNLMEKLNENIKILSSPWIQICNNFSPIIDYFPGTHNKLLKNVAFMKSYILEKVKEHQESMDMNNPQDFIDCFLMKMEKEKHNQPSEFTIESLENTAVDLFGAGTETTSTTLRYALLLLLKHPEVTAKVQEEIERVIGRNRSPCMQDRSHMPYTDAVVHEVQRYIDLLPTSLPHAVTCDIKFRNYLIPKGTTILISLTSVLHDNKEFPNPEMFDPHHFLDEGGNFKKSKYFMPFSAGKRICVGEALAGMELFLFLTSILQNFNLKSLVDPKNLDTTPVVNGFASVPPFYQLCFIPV
Chain of Cytochrome P450 2E1 (P05181 whole entry): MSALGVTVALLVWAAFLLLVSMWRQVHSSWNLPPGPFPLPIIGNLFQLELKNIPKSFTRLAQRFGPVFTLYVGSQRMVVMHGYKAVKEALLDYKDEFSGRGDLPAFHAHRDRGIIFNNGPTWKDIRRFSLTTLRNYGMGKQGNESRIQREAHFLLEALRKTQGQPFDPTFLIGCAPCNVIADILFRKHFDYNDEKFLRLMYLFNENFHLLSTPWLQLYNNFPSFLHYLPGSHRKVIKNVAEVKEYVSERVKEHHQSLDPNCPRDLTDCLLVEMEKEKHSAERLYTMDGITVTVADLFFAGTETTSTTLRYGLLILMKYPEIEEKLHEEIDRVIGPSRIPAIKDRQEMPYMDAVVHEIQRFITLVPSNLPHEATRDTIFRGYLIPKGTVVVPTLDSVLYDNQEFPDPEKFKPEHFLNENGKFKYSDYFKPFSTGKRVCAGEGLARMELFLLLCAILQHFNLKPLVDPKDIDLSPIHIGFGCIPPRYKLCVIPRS
Chain of Cytochrome P450 3A4 (P08684 whole entry): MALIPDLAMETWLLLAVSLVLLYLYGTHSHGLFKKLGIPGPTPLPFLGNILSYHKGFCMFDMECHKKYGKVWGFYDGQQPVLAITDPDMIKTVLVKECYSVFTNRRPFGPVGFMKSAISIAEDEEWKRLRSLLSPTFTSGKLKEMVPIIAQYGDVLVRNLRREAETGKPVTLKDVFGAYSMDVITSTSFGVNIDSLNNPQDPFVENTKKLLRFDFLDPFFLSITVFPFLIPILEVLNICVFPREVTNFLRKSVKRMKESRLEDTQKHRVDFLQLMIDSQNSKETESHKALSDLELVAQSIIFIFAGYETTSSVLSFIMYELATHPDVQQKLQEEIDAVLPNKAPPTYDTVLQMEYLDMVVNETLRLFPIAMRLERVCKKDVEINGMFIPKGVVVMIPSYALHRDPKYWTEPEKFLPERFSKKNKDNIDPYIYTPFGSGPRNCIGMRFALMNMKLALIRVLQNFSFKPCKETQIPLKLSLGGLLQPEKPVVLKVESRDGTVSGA
Chain of Cytochrome P450 2D6 (P10635 whole entry): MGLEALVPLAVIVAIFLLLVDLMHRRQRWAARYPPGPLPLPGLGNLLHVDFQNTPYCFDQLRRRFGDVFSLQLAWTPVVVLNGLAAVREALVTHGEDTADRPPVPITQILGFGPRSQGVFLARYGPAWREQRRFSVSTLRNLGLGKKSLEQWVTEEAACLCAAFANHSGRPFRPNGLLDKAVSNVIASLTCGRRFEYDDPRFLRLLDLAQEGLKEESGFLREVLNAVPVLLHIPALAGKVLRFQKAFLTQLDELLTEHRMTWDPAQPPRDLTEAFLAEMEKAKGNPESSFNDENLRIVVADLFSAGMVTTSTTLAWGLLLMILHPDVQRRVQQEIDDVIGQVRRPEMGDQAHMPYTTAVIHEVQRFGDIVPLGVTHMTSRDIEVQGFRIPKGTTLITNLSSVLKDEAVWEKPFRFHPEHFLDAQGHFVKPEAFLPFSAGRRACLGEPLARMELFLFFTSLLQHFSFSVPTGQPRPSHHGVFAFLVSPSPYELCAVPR
Chain of Cytochrome P450 2C19 (P33261 whole entry): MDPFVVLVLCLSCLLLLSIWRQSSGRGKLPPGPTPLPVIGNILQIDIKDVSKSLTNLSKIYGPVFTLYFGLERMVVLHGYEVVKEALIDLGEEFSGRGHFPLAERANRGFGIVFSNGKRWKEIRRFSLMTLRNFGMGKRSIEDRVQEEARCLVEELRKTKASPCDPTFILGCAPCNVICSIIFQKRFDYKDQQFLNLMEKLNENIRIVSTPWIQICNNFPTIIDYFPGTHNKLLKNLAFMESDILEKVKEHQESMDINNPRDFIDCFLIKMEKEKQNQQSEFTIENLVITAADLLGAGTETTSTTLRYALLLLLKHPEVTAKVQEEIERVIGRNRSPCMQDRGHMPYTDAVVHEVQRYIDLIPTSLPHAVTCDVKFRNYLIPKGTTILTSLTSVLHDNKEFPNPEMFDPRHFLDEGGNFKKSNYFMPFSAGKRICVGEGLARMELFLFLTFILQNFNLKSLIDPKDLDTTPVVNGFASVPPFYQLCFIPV

Question: With CN(C)CC#Cc1cccnc1 as the compound, how does the pKi (Cytochrome P450 2C9) read?
Answer: < 3.40

Question: What about the selectivity ratio (CYP2A6 over CYP2C9) of the same compound?
Answer: > 3

Question: And the selectivity ratio (CYP2A6 over CYP2B6)?
Answer: 2.8

Question: What about the selectivity ratio (CYP2A6 over CYP2D6) of the same compound?
Answer: > 3

Question: What about the selectivity ratio (CYP2A6 over CYP2C19) of the same compound?
Answer: > 3

Question: And the selectivity ratio (CYP2A6 over CYP2E1)?
Answer: > 3

Question: What about the pKi (Cytochrome P450 2D6) of the same compound?
Answer: < 3.40

Question: What about the pKi (Cytochrome P450 2E1) of the same compound?
Answer: < 3.40

Question: And the pKi (Cytochrome P450 2B6)?
Answer: 3.72

Question: And the pKi (Cytochrome P450 2A6 [1])?
Answer: 4.17

Question: What about the Stability (Liver microsomes) of the same compound?
Answer: Stable

Question: What about the pKi (Cytochrome P450 2C19) of the same compound?
Answer: < 3.40

Question: What about the selectivity ratio (CYP2A6 over CYP3A4) of the same compound?
Answer: > 3

Question: What about the pKi (Cytochrome P450 3A4) of the same compound?
Answer: < 3.40

Question: What about the Stability (Mus musculus) of the same compound?
Answer: Stable

Question: With SCc1ccc(-c2cccnc2)o1 as the compound, how does the pKi (Cytochrome P450 2C9) read?
Answer: 6.40

Question: And the selectivity ratio (CYP2A6 over CYP2B6)?
Answer: > 1.5

Question: What about the selectivity ratio (CYP2A6 over CYP2D6) of the same compound?
Answer: < 0.9

Question: And the selectivity ratio (CYP2A6 over CYP2C19)?
Answer: < 0.3

Question: And the selectivity ratio (CYP2A6 over CYP2E1)?
Answer: < 0.1

Question: What about the pKi (Cytochrome P450 2D6) of the same compound?
Answer: 6.15

Question: And the pKi (Cytochrome P450 2E1)?
Answer: 7.30

Question: And the pKi (Cytochrome P450 2B6)?
Answer: 5.96

Question: What about the pKi (Cytochrome P450 2A6 [1]) of the same compound?
Answer: > 6.10

Question: And the half-life ([2]; microsomes)?
Answer: 1.98 h

Question: And the pKi (Cytochrome P450 2C19)?
Answer: 6.70

Question: And the selectivity ratio (CYP2A6 over CYP3A4)?
Answer: > 4.1

Question: And the Activity (Cytochrome P450 2A6 [3])?
Answer: Active

Question: And the pKi (Cytochrome P450 3A4)?
Answer: 5.51

Question: And the half-life ([4]; microsomes)?
Answer: 1.75 h

Question: With c1cncc(-c2ccc(C3SCCS3)o2)c1 as the compound, how does the pKi (Cytochrome P450 2C9) read?
Answer: 5.89

Question: What about the selectivity ratio (CYP2A6 over CYP2C9) of the same compound?
Answer: 0.1

Question: And the selectivity ratio (CYP2A6 over CYP2B6)?
Answer: 0.4

Question: What about the selectivity ratio (CYP2A6 over CYP2D6) of the same compound?
Answer: 2.8

Question: What about the selectivity ratio (CYP2A6 over CYP2C19) of the same compound?
Answer: 0.1

Question: What about the selectivity ratio (CYP2A6 over CYP2E1) of the same compound?
Answer: 0.04

Question: What about the pKi (Cytochrome P450 2D6) of the same compound?
Answer: 4.42

Question: What about the pKi (Cytochrome P450 2E1) of the same compound?
Answer: 6.22

Question: And the pKi (Cytochrome P450 2B6)?
Answer: 5.28

Question: And the pKi (Cytochrome P450 2A6 [1])?
Answer: 4.86

Question: And the half-life ([2]; liver microsomes)?
Answer: 1.53 h

Question: And the pKi (Cytochrome P450 2C19)?
Answer: 6.15

Question: And the selectivity ratio (CYP2A6 over CYP3A4)?
Answer: 0.1

Question: What about the Activity (Cytochrome P450 2A6 [3]) of the same compound?
Answer: Active

Question: And the pKi (Cytochrome P450 3A4)?
Answer: 5.96

Question: What about the half-life ([4]; liver microsomes) of the same compound?
Answer: 0.4 h

Question: What does the source list for CN(C)Cc1ccc(-c2cccnc2)s1?
Answer: pKi (Cytochrome P450 2C9): 3.99; selectivity ratio (CYP2A6 over CYP2C9): 1.5; selectivity ratio (CYP2A6 over CYP2B6): > 3; selectivity ratio (CYP2A6 over CYP2D6): 0.2; selectivity ratio (CYP2A6 over CYP2C19): 0.8; selectivity ratio (CYP2A6 over CYP2E1): > 3; pKi (Cytochrome P450 2D6): 4.84; pKi (Cytochrome P450 2E1): < 3.40; pKi (Cytochrome P450 2B6): < 3.40; pKi (Cytochrome P450 2A6 [1]): 4.18; Stability (Liver microsomes): Stable; pKi (Cytochrome P450 2C19): 4.28; selectivity ratio (CYP2A6 over CYP3A4): 1.6; pKi (Cytochrome P450 3A4): 3.96; half-life ([4]; liver microsomes): 5.72 h

Question: With NCCCc1cccnc1 as the compound, how does the pKi (Cytochrome P450 2C9) read?
Answer: < 3.40

Question: And the selectivity ratio (CYP2A6 over CYP2C9)?
Answer: > 30

Question: And the selectivity ratio (CYP2A6 over CYP2B6)?
Answer: > 30

Question: What about the selectivity ratio (CYP2A6 over CYP2D6) of the same compound?
Answer: > 30

Question: And the selectivity ratio (CYP2A6 over CYP2C19)?
Answer: > 30

Question: And the selectivity ratio (CYP2A6 over CYP2E1)?
Answer: > 30

Question: What about the pKi (Cytochrome P450 2D6) of the same compound?
Answer: < 3.40

Question: And the pKi (Cytochrome P450 2E1)?
Answer: < 3.40

Question: And the pKi (Cytochrome P450 2B6)?
Answer: < 3.40

Question: And the pKi (Cytochrome P450 2A6 [1])?
Answer: 5.18

Question: And the Stability (Liver microsomes)?
Answer: Stable

Question: What about the pKi (Cytochrome P450 2C19) of the same compound?
Answer: < 3.40

Question: And the selectivity ratio (CYP2A6 over CYP3A4)?
Answer: > 400

Question: What about the pKi (Cytochrome P450 3A4) of the same compound?
Answer: < 3.40

Question: And the Stability (Mus musculus)?
Answer: Stable

Question: With CC(=O)SCc1ccc(-c2cccnc2)o1 as the compound, how does the pKi (Cytochrome P450 2C9) read?
Answer: 5.54

Question: And the selectivity ratio (CYP2A6 over CYP2C9)?
Answer: 3.4

Question: What about the selectivity ratio (CYP2A6 over CYP2B6) of the same compound?
Answer: 1

Question: What about the selectivity ratio (CYP2A6 over CYP2D6) of the same compound?
Answer: 53

Question: What about the selectivity ratio (CYP2A6 over CYP2C19) of the same compound?
Answer: 4.6

Question: What about the selectivity ratio (CYP2A6 over CYP2E1) of the same compound?
Answer: 0.3

Question: And the pKi (Cytochrome P450 2D6)?
Answer: 4.34

Question: And the pKi (Cytochrome P450 2E1)?
Answer: 6.70

Question: What about the pKi (Cytochrome P450 2B6) of the same compound?
Answer: 6.05

Question: And the pKi (Cytochrome P450 2A6 [1])?
Answer: 6.10

Question: And the half-life ([2]; liver microsomes)?
Answer: 0.5 h

Question: And the pKi (Cytochrome P450 2C19)?
Answer: 5.41

Question: And the selectivity ratio (CYP2A6 over CYP3A4)?
Answer: 1.7

Question: And the Activity (Cytochrome P450 2A6 [3])?
Answer: Not Active

Question: What about the pKi (Cytochrome P450 3A4) of the same compound?
Answer: 5.82

Question: And the half-life ([4]; liver microsomes)?
Answer: 0.3 h

Reference: ChEMBL document CHEMBL1137358, “Synthetic inhibitors of cytochrome P-450 2A6: inhibitory activity, difference spectra, mechanism of inhibition, and protein cocrystallization” (J Med Chem, 2006)
